{"source": "patent US6177409A", "about": "“Method for the site specific synthesis of novel 3-hydroxypyridin-4(1H)ons derivatives from aminomonosaccharides or aminoitols, products obtained by this method and their applications” (priority 1996, dated 2001)", "key": {"[1]": {"assay": "Solubility in water"}, "[2]": {"system": "mice", "assay": "in vivo", "description": "(§1) The samples are put in a solution either in water or in a mixture of water-DMSO (3:2; v/v) so as to obtain solutions of varying concentrations,either lower than or equal to 130 g·L^-1; the volumes injected are calculated on the basis of 0.2 mL for a mouse body weight of 20 g.\n(§2) The toxicity is evaluated starting from aqueous solutions, either buffered or not with NaH2 PO4 or else with Na2 HPO4, or else after addition of a stoichiometric quantity of NaHCO3.\n(§3) The 2-methyl-3-hydroxypyridine-4(1H)-one derivatives of glycerol (14), of xylitol (17), of mono-acetone xylose (12) and of solketal (11) were injected by I. V. route.\n(§4) The 2-methyl-3-hydroxypyridine-4(1H)-one compound of diacetone xylitol (10) was injected by I. P. route."}, "[3]": {"assay": "in vivo", "settings": "mouse, in vivo", "description": "as §1, §2, §3, §4"}, "[4]": {"settings": "male and female mice, I.V., (maximum solubility)"}}, "data": [{"smiles": "Cc1c(O)c(=O)ccn1CC(O)CO", "note": "(centres unmarked) [Compound 14, 1-glyceryl-2-methyl-3-hydroxypyridine-4(1H)-one]", "values": [{"measurement": "solubility", "setting": "[1]; water", "result": "> 130", "unit": "mg/mL"}, {"measurement": "Mortality (number of mice)", "setting": "[2]; female, I.V., 1300 mg/kg, water 60/DMSO 40, 5 mice", "result": 0}, {"measurement": "Mortality (number of mice)", "setting": "[2]; female, I.V., 1300 mg/kg, water, 5 mice", "result": 0}, {"measurement": "Acute toxicity in mice", "setting": "[2]; [4]", "result": "totally innocuous at 1300 mg.kg^-1"}, {"measurement": "Mortality (number of mice)", "setting": "[2]; male, I.V., 1300 mg/kg, water 60/DMSO 40, 5 mice", "result": 0}, {"measurement": "Mortality (number of mice)", "setting": "[2]; male, I.V., 1300 mg/kg, water, 5 mice", "result": 0}, {"measurement": "toxicity at 1300 mg/kg", "setting": "[2]; mice, I.V., 1300 mg.kg^-1, running text", "result": "non-toxic"}]}, {"smiles": "Cc1c(O)c(=O)ccn1CC1COC(C)(C)O1", "note": "(centres unmarked) [Compound 11, 1-(2',3'-O-isopropylidene-glyceryl)-2-methyl-3-hydroxypyridine-4(1H)-one]", "values": [{"measurement": "toxicity compared with L1", "setting": "[2]; mice", "result": "toxicity higher than that of L1"}, {"measurement": "LD50 ± SD", "setting": "[2]; mouse, in vivo, iv", "result": "745 ± 84", "unit": "mg/kg"}, {"measurement": "neurophysiological effects", "setting": "[2]; mouse, in vivo, iv", "result": "induces adverse neurophysiological effects"}, {"measurement": "Mortality (number of mice)", "setting": "[2]; mouse, in vivo, iv, 500 mg/kg", "result": 0}, {"measurement": "Mortality times", "setting": "[2]; mouse, in vivo, iv, 650 mg/kg", "result": 3, "unit": "min"}, {"measurement": "Mortality (number of mice)", "setting": "[2]; mouse, in vivo, iv, 800 mg/kg", "result": 2}, {"measurement": "Mortality (number of mice)", "setting": "[2]; mouse, in vivo, iv, 1000 mg/kg", "result": 4}, {"measurement": "Secondary effects", "setting": "[2]; mouse, in vivo, iv, 1000 mg/kg", "result": "1 min. convulsive phase followed by 10 min. of drop in spontaneous activity (10/10)"}, {"measurement": "Mortality (number of mice)", "setting": "[2]; mouse, in vivo, iv, 1300 mg/kg", "result": 5}, {"measurement": "Mortality times", "setting": "[2]; mouse, in vivo, iv, 1300 mg/kg", "result": "30-90"}, {"measurement": "Secondary effects", "setting": "[2]; mouse, in vivo, iv, 1300 mg/kg", "result": "death preceded by a marked convulsive phase (10/10)"}, {"measurement": "LD50", "setting": "[3]; iv, LD50 ± SD", "result": "817 ± 75", "unit": "mg/kg"}]}, {"smiles": "Cc1c(O)c(=O)ccn1CC1OC(C)(C)OC1C1COC(C)(C)O1", "note": "(centres unmarked) [Compound 10, 1-(2',3': 4',5'-di-O-isopropylidene-xylityl)-2-methyl-3-hydroxypyridine-4(1H)-one]", "values": [{"measurement": "solubility at the doses studied", "setting": "[1]; acute toxicity doses, compared with L1", "result": "less soluble at the doses studied"}, {"measurement": "solubility in water", "setting": "[1]; water", "result": "weak"}, {"measurement": "toxicity compared with L1", "setting": "[2]; mice", "result": "weaker toxicity than L1"}, {"measurement": "Macroscopic lesions of visceral organs", "setting": "[2]; mouse, in vivo, ip", "result": "No visceral organ presented macroscopic lesions"}, {"measurement": "Mortality (number of mice)", "setting": "[2]; mouse, in vivo, ip, 325 mg/kg", "result": 0}, {"measurement": "Secondary effects", "setting": "[2]; mouse, in vivo, ip, 325 mg/kg", "result": "none (5/5)"}, {"measurement": "Mortality (number of mice)", "setting": "[2]; mouse, in vivo, ip, 650 mg/kg", "result": 0}, {"measurement": "Secondary effects", "setting": "[2]; mouse, in vivo, ip, 650 mg/kg", "result": "none (5/5)"}, {"measurement": "LD50", "setting": "[3]; ip, LD50", "result": "> 650", "unit": "mg/kg"}]}, {"smiles": "Cc1c(O)c(=O)ccn1CC(O)C(O)C(O)CO", "note": "(centres unmarked) [Compound 17, 1-xylityl-2-methyl-3-hydroxypyridine-4(1H)-one]", "values": [{"measurement": "Acute toxicity in mice", "setting": "[2]; [4]", "result": "totally innocuous at 1000 mg.kg^-1"}, {"measurement": "toxicity compared with L1", "setting": "[2]; mice", "result": "less toxic than L1"}, {"measurement": "first toxic effects (=LD10)", "setting": "[2]; mice, I.V.", "result": 1300, "unit": "mg/kg"}, {"measurement": "Onset of significant decrease in spontaneous activity after injection", "setting": "[2]; mouse, in vivo, iv", "result": "~2", "unit": "h"}, {"measurement": "Mortality (number of mice)", "setting": "[2]; mouse, in vivo, iv, 650 mg/kg", "result": 0}, {"measurement": "Secondary effects", "setting": "[2]; mouse, in vivo, iv, 650 mg/kg", "result": "none (5/5)"}, {"measurement": "Mortality (number of mice)", "setting": "[2]; mouse, in vivo, iv, 1000 mg/kg", "result": 0}, {"measurement": "Secondary effects", "setting": "[2]; mouse, in vivo, iv, 1000 mg/kg", "result": "none (5/5)"}, {"measurement": "Mortality (number of mice)", "setting": "[2]; mouse, in vivo, iv, 1300 mg/kg", "result": 0}]}, {"smiles": "Cc1c(O)c(=O)ccn1C", "note": "[Compound L1, 1.2-dimethyl-3-hydroxypyridine-4(1H)-one, reference compound]", "values": [{"measurement": "Secondary effects", "setting": "[2]; mouse, in vivo, ip, 650 mg/kg, pH 7", "result": "spontaneous decrease in activity xx min. before death (5/5)"}, {"measurement": "Secondary effects", "setting": "[2]; mouse, in vivo, iv, 325 mg/kg, pH 2.5", "result": "irritation at injection, spontaneous decrease in activity 2-4 min. (5/5)"}, {"measurement": "mortality", "setting": "[3]; 1300 mg/kg", "result": 100, "unit": "%"}]}, {"smiles": "Cc1c(O)c(=O)ccn1C[C@H]1O[C@@H]2OC(C)(C)O[C@@H]2[C@H]1O", "note": "[Compound 12, 1-(1',2'-O-isopropylidene-α-D-xylofuranose-5-yl)-2-methyl-3-hydroxypyridine-4-(1H)-one]", "values": [{"measurement": "LD10", "setting": "[2]; female mice, I.V.", "result": 1000, "unit": "mg/kg"}, {"measurement": "Acute toxicity in mice", "setting": "[2]; male mice, I.V.", "result": "totally innocuous at 1300 mg.kg^-1"}, {"measurement": "toxicity compared with L1", "setting": "[2]; mice", "result": "less toxic than L1"}, {"measurement": "first toxic effects (=LD10)", "setting": "[2]; mice, I.V.", "result": 1300, "unit": "mg/kg"}, {"measurement": "Cause of death", "setting": "[2]; mouse, in vivo, iv, 1000 mg/kg", "result": "respiratory deficiency"}, {"measurement": "Mortality times", "setting": "[2]; mouse, in vivo, iv, 1000 mg/kg", "result": 4, "unit": "min"}, {"measurement": "Mortality times", "setting": "[2]; mouse, in vivo, iv, 1300 mg/kg", "result": "360 to 1080", "unit": "min"}]}]}
